# From patent US11225474B2, “Crystalline salt forms of 3-(1,2,4-triazolo[4,3-a]pyridine-3-ylethynyl)-4-methyl-N-(4-((4-methylpiperazin-1-yl)methyl)-3-trifluoromethylphenyl)benzamide for medical application” (priority 2016, dated 2022)
# How the values were obtained:
# Gene toxicity: Ames test = format: cell-based; details: all concentrations tested
# [1] = tested on: marrow cells obtained from C57BL/6N line mice with induced acute leukemia; assay: Acute leukemia mouse model; format: in vivo; details: oral, 40 mg/kg (34 mg/kg as free base), 2 weeks
# Description: To induce the pathology, marrow cells obtained from C57BL/6N line mice with induced acute leukemia were used. Cells were injected to the tail vein of an animal following administration of a sub lethal dose of radiation. Therapy was initiated on the 5th day after pathology induction and continued for 2 weeks.
# [2] = Stability of polymorph modifications, suspending in acetone for 6 days; format: physicochemical
# Description: Crystallinity of all samples obtained was studied using the method of X-ray powder diffraction (to study the crystallinity structure). Diffraction patterns were obtained at a temperature of 25° C. […] Survey step 0.02° 2θ, angle range 3-45° 2θ. Diffraction patterns obtained were studied in detail using X'Pert HighScore Plus software package.
# [3] = MTD at a single administration to dogs; details: dog, in vivo
# Description: The MTD of the drug at a single administration to dogs was 45 mg/kg (38 mg/kg calculated as a free base).
# CYP2C9 = CYP2C9 (Homo sapiens, UniProt P11712); assay: Metabolism study using cytochrome enzyme drugs; format: in vitro ADME; details: 2C9
# RIPK3 = RIPK3 (Homo sapiens, UniProt Q9Y572); assay: Human kinase panel at 100 nM; format: biochemical
# physchem = details: deionized water, thermodynamic from solid, Equilibrium solubility, HPLC analysis
# SR = assay: Cytotoxicity, lymphoma line; format: cell-based, human
# Bcr-Abl (Q252H) = Bcr-Abl (Q252H) (Homo sapiens, UniProt P00519, Q252H, form not given); assay: Bcr-Abl tyrosine kinase enzyme activity
# Guinea pigs and mice = assay: Allergenic properties (anaphylaxis, ITH, DTH and related models); format: in vivo, Guinea pig; mice; details: all models studied
# Text: To identify allergenic properties, the following methods were used: evaluation of anaphylactogenic activity using Guinea pig general systemic anaphylaxis and active cutaneous anaphylaxis models; evaluation of immediate-type hypersensitivity (ITH) reaction and delayed-type hypersensitivity (DTH) reaction in Guinea pigs following epicutaneous and conjunctival drug application; evaluation of DTH reaction in mice; study of the inflammation reaction to A concanavalin in mice; measuring of eosinophil blood count, evaluation of the effect on phagocyte neutrophil activity (Nitro Blue-Tetrazolium Test (NBT)), and leukocyte specific lysis reaction scenario using a Guinea pig model with subcutaneous administration of the drug.
# BLK = BLK (Homo sapiens, UniProt P51451); assay: Human kinase panel at 100 nM; format: biochemical
# K562 = assay: Cytotoxicity, Ph+ CML model cell line; format: cell-based; details: Homo sapiens, read-out: IC50 (toxicity)
# Bcr-Abl (H396P) = Bcr-Abl (H396P) (Homo sapiens, UniProt P00519, H396P, form not given); assay: Bcr-Abl tyrosine kinase enzyme activity
# BaF3/BCR-ABL E255K = assay: Toxicity to transduced BaF3 model tumor cell line; format: cell-based, murine; details: Mus musculus
# CCRF-CEM = assay: Cytotoxicity, acute lymphoblastic leukemia line; format: cell-based, human
# FGR = FGR (Homo sapiens, UniProt P09769); assay: Human kinase panel at 100 nM; format: biochemical
# [4] = Hygroscopicity by gravimetric moisture absorption; format: physicochemical; details: relative air humidity of 90%
# Text: Samples were also studied using the following methods: polarization microscopy (Leica DMRB Polarized Microscope, resolution of 1600×1200)—to confirm crystallinity, ion chromatography—to confirm anion and cation stoichiometric proportion, differential scanning calorimetry (DSC) and thermogravimetric analysis (TGA)—to confirm composition and study of temperature stability of samples; ^1H NMR (500 MHz Bruker AVANCE 500.13 MHz, solvent DMSO-d6)—to confirm structure, assess purity and content of organic solvents; gravimetric moisture absorption—to assess hygroscopicity. DSC was carried out using Mettler 822e DSC apparatus. The measuring system was calibrated according to ISO 11357-1 standard based on standard substances phase changes (C6H12; Hg; benzoic acid; Ga; KNO3; In; Sn; Bi; CsCl; purity grade 99.99%). Temperature calibration regular error (determined based on In) is 0.1°. Samples were tested in standard aluminum cells in the artificial air flow at a temperature range of 30-300° C. with heating speed of 10°/min. TG measurements were taken using Mettler 851e SDTA/TGA TG analyzer. The apparatus was calibrated using standard substances melting points (Ag; Al; Bi; In; Sn; purity grade of 99.99%). Weighing error is NMT 0.1% (determined using CaC2O4·2H2O standard). The test was carried out in a standard open aluminum container in the artificial air flow at a temperature range of 30-150° C. with heating speed of 10°/min. To avoid dehydration, the material was not exposed to mechanical treatment before taking measurements.
# MDA-MB-468 = assay: Cytotoxicity, breast cancer line; format: cell-based, human
# [5] = Dissolution kinetics (USP Apparatus 1 Basket Method); format: physicochemical; details: distilled water, 37±1° C., 118 mg salt
# Description: During further studies of the polymorphous modifications of the methanesulfonic acid salt of 3-(1,2,4-triazolo[4,3-a]pyridine-3-ylethynyl)-4-methyl-N-(4-((4-methylpiperazine-1-yl)methyl)-3-trifluoromethylphenyl)benzamide, the kinetics of dissolution of the free base and the two methanesulfonic acid salt form polymorphous modifications was studied. Dissolution kinetics studies were performed using USP Apparatus 1 Basket Method (USP40, General Chapter <711>. Dissolution), dissolution media volume—700 mL, temperature—37±1° C. paddle stirrers' rotation rate—100 rpm. The test sample dissolution rate was calculated as an average of six repeats. Distilled water was used as the dissolution medium for the polymorphous modifications of 3-(1,2,4-triazolo[4,3-a]pyridine-3-ylethynyl)-4-methyl-N-(4-((4-methylpiperazine-1-yl)methyl)-3-trifluoromethylphenyl)benzamide methanesulfonic acid salt and, and a solution of 12.2 mL of methanesulfonic acid in 500 mL of water was used as the dissolution medium for the free base. Test portions containing 100 mg of 3-(1,2,4-triazolo[4,3-a]pyridine-3-ylethynyl)-4-methyl-N-(4-((4-methylpiperazine-1-yl)methyl)-3-trifluoromethylphenyl)benzamide or 118 mg of 3-(1,2,4-triazolo[4,3-a]pyridine-3-ylethynyl)-4-methyl-N-(4-((4-methylpiperazine-1-yl)methyl)-3-trifluoromethylphenyl)benzamide methanesulfonic acid salt (100 mg calculated as free base) were used for dissolution. In 780 minutes (13 hours) after the beginning of the test, pH of prepared solutions was measured.
# KCL-22 = assay: Cytotoxicity, Ph+ CML model cell line; format: cell-based; details: Homo sapiens, read-out: IC50 (toxicity)
# RAF1 = RAF1 (Homo sapiens, UniProt P04049); assay: Human kinase panel at 100 nM; format: biochemical
# HCT116 line cells = details: oral, 25 mg/kg (21 mg/kg as free base), 20 days
# Description: To induce pathology, HCT116 line cells were used. Cells in the amount of 200 μL (2.5×10^7 cells/mL) were subcutaneously injected to the right side of thymus-deprived female mice (SCID). […] To determine the efficacy of tumor growth inhibition upon completion of treatment (20 days), the average size ratio was calculated between the therapeutic/control groups (% T/C).
# murine marrow cells = assay: Gene toxicity: metaphase chromosome aberration assay; format: in vivo; details: all doses tested
# BaF3/BCR-ABL = assay: Toxicity to transduced BaF3 model tumor cell line; format: cell-based, murine; details: Mus musculus
# HCK = HCK (Homo sapiens, UniProt P08631); assay: Human kinase panel at 100 nM; format: biochemical
# Chain of HCK (P08631 whole entry): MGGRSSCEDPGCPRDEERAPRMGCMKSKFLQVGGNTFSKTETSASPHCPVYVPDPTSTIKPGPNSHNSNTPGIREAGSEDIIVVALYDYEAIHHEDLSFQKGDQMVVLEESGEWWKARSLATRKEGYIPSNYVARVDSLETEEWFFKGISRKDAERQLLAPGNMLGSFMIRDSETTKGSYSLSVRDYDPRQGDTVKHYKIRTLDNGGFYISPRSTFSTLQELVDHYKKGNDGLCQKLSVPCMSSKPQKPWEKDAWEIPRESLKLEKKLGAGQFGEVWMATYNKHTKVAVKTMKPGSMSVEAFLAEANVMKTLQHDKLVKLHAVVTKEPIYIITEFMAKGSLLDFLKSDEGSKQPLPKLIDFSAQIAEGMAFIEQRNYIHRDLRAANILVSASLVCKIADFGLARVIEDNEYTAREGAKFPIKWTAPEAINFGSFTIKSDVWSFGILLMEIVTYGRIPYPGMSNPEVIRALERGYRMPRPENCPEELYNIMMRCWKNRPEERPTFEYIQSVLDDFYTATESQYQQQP
# Chain of FGR (P09769 whole entry): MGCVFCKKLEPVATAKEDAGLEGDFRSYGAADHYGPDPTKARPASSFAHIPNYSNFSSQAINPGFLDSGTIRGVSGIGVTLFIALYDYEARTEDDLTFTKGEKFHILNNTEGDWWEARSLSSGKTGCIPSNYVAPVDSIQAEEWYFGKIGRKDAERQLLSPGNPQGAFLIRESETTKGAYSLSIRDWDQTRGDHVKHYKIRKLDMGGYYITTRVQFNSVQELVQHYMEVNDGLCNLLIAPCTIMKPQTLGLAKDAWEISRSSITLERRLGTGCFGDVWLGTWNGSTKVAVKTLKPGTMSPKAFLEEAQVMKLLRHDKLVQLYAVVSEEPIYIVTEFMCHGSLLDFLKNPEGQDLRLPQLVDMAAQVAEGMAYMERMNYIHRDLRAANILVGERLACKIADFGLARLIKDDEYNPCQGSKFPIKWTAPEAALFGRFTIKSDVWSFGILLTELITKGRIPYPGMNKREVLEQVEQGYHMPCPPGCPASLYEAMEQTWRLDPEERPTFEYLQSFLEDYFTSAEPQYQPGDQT
# Chain of BLK (P51451 whole entry): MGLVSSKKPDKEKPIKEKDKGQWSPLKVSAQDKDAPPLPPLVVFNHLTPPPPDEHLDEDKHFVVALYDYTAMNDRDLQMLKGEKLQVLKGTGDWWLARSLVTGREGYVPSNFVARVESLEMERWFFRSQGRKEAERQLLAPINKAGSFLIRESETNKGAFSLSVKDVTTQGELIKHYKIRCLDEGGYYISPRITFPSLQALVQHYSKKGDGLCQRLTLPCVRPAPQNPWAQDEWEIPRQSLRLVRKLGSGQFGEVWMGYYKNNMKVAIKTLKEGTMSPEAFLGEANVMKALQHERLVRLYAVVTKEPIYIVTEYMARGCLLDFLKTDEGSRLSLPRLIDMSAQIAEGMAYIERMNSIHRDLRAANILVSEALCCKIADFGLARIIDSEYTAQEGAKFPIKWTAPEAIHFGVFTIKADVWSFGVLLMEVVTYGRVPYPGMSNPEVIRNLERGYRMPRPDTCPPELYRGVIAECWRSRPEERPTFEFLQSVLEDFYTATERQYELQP
# Chain of RAF1 (P04049 whole entry): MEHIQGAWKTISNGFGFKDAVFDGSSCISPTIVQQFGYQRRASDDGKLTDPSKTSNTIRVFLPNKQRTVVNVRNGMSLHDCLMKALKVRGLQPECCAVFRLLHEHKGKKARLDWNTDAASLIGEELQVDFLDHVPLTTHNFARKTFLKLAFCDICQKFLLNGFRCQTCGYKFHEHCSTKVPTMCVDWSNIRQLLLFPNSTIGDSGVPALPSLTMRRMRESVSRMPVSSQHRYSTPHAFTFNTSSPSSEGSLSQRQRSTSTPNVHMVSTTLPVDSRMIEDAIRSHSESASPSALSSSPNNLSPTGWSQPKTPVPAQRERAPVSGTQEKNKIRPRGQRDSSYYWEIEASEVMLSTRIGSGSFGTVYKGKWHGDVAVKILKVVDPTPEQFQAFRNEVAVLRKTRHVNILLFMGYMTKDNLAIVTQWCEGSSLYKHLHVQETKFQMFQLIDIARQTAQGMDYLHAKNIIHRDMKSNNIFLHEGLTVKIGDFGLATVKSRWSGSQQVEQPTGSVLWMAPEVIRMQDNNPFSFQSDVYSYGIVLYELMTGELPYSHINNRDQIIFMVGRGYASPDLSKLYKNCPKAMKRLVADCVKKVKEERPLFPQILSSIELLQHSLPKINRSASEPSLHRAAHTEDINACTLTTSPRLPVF
# Chain of RIPK3 (Q9Y572 whole entry): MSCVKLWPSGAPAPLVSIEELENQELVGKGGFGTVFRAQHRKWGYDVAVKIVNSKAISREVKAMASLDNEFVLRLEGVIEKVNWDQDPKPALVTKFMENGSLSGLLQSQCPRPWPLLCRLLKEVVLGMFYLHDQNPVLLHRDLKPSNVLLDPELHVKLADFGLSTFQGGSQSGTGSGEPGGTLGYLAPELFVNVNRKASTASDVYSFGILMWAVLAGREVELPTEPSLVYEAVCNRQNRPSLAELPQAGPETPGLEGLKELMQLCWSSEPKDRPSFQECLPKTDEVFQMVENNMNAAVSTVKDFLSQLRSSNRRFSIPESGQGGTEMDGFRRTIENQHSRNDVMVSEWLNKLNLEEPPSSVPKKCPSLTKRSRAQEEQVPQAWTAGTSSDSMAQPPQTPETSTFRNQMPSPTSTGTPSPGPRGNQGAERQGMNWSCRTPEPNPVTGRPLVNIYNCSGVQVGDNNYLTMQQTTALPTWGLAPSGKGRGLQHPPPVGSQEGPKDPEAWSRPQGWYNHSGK
# Chain of CYP2C9 (P11712 whole entry): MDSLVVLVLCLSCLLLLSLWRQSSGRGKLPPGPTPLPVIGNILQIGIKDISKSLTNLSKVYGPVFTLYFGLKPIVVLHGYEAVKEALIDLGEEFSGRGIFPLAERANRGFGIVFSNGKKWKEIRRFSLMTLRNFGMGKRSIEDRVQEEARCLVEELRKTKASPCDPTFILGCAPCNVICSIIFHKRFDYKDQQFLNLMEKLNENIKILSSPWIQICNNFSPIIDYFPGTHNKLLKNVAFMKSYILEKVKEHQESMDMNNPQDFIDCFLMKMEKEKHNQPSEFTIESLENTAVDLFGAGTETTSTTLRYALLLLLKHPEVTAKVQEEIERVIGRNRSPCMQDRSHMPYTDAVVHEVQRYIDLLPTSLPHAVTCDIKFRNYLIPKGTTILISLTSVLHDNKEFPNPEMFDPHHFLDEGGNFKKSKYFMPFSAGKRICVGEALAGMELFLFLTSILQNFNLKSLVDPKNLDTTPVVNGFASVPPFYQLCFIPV
compound,measurement,setting,value
"CS(=O)(=O)O.Cc1ccc(C(=O)Nc2ccc(CN3CCN(C)CC3)c(C(F)(F)F)c2)cc1C#Cc1nnc2ccccn12 [methanesulfonic acid salt, 3-(1,2,4-triazolo[4,3-a]pyridine-3-ylethynyl)-4-methyl-N-(4-((4-methylpiperazin-1-yl)methyl)-3-trifluoromethylphenyl)benzamide mono methanesulfonic acid salt]",genotoxic effects,Gene toxicity: Ames test,had no genotoxic effects
same,increase of average lives compared to the control group,[1],more than 25%
same,crystalline structure after suspending in acetone,"[2]; acetone, 6 days",remained unchanged
same,Crystallinity in 6 days,"[2]; suspending in acetone for 6 days, room temperature",Cryst.
same,MTD,[3]; calculated as a free base,38 mg/kg
same,MTD,[3]; dose of the salt,45 mg/kg
same,participation of the isoform in metabolism,CYP2C9,does not involve
same,inhibition at 0.1 µM,RIPK3,> 50%
same,solubility thermodynamic,physchem,> 100 mg/mL
same,cytotoxicity,SR,showed cytotoxicity
same,IC50,Bcr-Abl (Q252H),12 nM
same,allergenic activity,Guinea pigs and mice,did not display any detectable allergenic activity
same,inhibition at 0.1 µM,BLK,> 50%
same,IC50,K562,8 nM
same,IC50,Bcr-Abl (H396P),1 nM
same,IC50,BaF3/BCR-ABL E255K,25 nM
same,cytotoxicity,CCRF-CEM,showed cytotoxicity
same,Equilibrium solubility,"deionized water, HPLC analysis, listed as HAL-G-196-20",>100 mg/mL
same,pH,equilibrium solubility test in water,3.6
same,Crystallinity in 24 h,"solid in water, equilibrium solubility test",Dissolution
same,solubility relative to the free base,water,"10,000 fold"
same,inhibition at 0.1 µM,FGR,> 50%
same,water absorbed (hygroscopicity),[4],less than two mass percent of water
same,cytotoxicity,MDA-MB-468,showed cytotoxicity
same,time for 95% to transfer to the solution,[5],less than one minute
same,time to full dissolution,[5],less than 4 minutes
same,IC50,KCL-22,9 nM
same,inhibition at 0.1 µM,RAF1,> 50%
same,T/C (average tumor size ratio therapeutic/control),HCT116 line cells,< 35%
same,genotoxic effects,murine marrow cells,had no genotoxic effects
same,IC50,BaF3/BCR-ABL,5 nM
same,inhibition at 0.1 µM,HCK,> 50%
